Patent publication US20110021765A1, “FLUORINATED LANTHANIDE PROBES FOR 19F MAGNETIC RESONANCE APPLICATIONS” (priority 2007, published 2011)
Values joined by “and” are separate entries in the source; they are usually repeats but may differ in a detail not shown here. Equal values may be shown once.

Experiments:
Assay type in all cases: physicochemical
[1] = 19F NMR pH titration, acid-base equilibrium fit; details: ratio of integrated 19F intensities −59/−53 and −65/−64 ppm
Text: Solid lines: least-squares fits to the fast-exchange acid-base equilibrium equation for the chemical shift.
Solid lines: least-squares fits to the slow-exchange acid-base equilibrium equation for the NMR line intensity.
The NH group of [Ln.L^4] deprotonates in alkaline conditions, causing the CF3 group of [Ho.L^4] to shift from −55.1 ppm to −36.8 ppm under basic conditions (see FIG. 3). Because the acid-base equilibrium is fast in this system ([…] lanthanide re-coordination involved), only one signal is observed, with the chemical shift corresponding to the weighted average of the chemical shifts of the individual forms.
The higher pKa values in biofluids are the result of additional stabilization of the acidic form by carbonate coordination (see FIG. 4) (S. Aime, A. Barge, M. Botta, J. A. K. Howard, R. Kataky, M. P. Lowe, J. M. Moloney, D. Parker and A. S. de Sousa, Chem. Commun., 1999, 1047); (Y. Bretonniere, M. J. Cann, D. Parker and R. J. Slater, Org. Biomol. Chem., 2004, 2, 1624). The basic form exists as a mixture of two diastereomers, defined by the R or S configuration at the sulphur atom (Scheme 3). The experimental ratio is 6:1 (298 K, pH=8), resonating at −98 and −112 ppm respectively. […]

[2] = 19F NMR chemical shifts and longitudinal relaxation rates at 188 MHz (4.7 T, 298K); details: for Longitudinal relaxation rate R1 ortho CF3 group / Longitudinal relaxation rate R1 other CF3 group / Limiting 19F chemical shift δF ortho CF3 group / Limiting 19F chemical shift δF other CF3 group if present: 188 MHz; for Limiting 19F chemical shift δF ortho CF3 group / Limiting 19F chemical shift δF other CF3 group if present: pH 5.5, referred to NaCF3CO2 δF −76.1 ppm
Method: ^19F NMR chemical shifts and longitudinal relaxation rates for various lanthanide complexes of L^1, L^2 and L^3 were measured at 188 MHz (4.7 T, 298K).

[3] = Eu luminescence emission intensity ratio versus pH; details: 298K, H2O, 0.1 M NaCl
[4] = Comparative 19F NMR signal intensity of paramagnetic complexes versus diamagnetic [YL^1]; details: 188 MHz (4.7 T), 298K
Method: A comparative analysis examined the ortho-CF3 resonance in ^19F NMR spectra of the diamagnetic Y complex, [YL^1] (R1 0.93 s^−1, {linewidth, ω1/2=2 Hz}) and the terbium (R1 90 s^−1 {.ω1/2 90 Hz} and Dy (R1 77 s^−1 {.ω1/2 35 Hz}) analogues. Using a relaxation delay of 3 times T1, ^19F spectra were acquired over a common time interval of 30 minutes (2 mM complex, 188 MHz (4.7 T), 298K, typical S/N ratio per mM was 100:1). The relative signal intensity ratios per mM of complex (peak height times peak width at half height; processing used a line-broadening function equal to half of the observed linewidth, for the given complex resonance) for observation of the major ortho-CF3 resonance in [TmL^1], [DyL^1] and [TbL^1] versus the diamagnetic analogue, [YL^1], were 52:1 22:1 and 41:1 respectively. This is consistent with the ability to increase the number of scans acquired for the faster relaxing CF3 resonance in the paramagnetic complexes.

[5] = N-protonated complex, pH 5.5, 188 MHz

Compound	Complex protonation constant pKMLH [1]	Longitudinal relaxation rate R1 ortho CF3 group ([2]; pH 5.5)	Longitudinal relaxation rate R1 other CF3 group ([2]; pH 5.5) [s⁻¹]	Limiting 19F chemical shift δF ortho CF3 group [2] [ppm]	Limiting 19F chemical shift δF other CF3 group if present [2] [ppm]	R1 ortho CF3 group, N-protonated complex (value in parentheses) [2, 5] [s⁻¹]	R1 other CF3 group, N-protonated complex (value in parentheses) [2, 5] [s⁻¹]	δF ortho CF3 group, N-protonated complex (value in parentheses) [2, 5] [ppm]	δF other CF3 group, N-protonated complex (value in parentheses) [2, 5] [ppm]	Apparent protonation constant from Eu emission band intensity ratio [3]	Longitudinal relaxation rate R1 ortho CF3 group ([2]; pH 5.5, listed as yttrium (III) complex of ligand L^1) [s⁻¹]	Linewidth ω1/2 of ortho-CF3 resonance [4] [Hz]
O=C([O-])CN1CCN(CC[N-]S(=O)(=O)c2cc(C(F)(F)F)ccc2C(F)(F)F)CCN(CC(=O)[O-])CCN(CC(=O)[O-])CC1.[Eu+3] [[EuL^2]^−]	5.5 (±0.05)	2.5 s⁻¹	1.5	−53	−65	2.2	1.2	−59	−64	5.5		
O=C([O-])CN1CCN(CC[N-]S(=O)(=O)c2cc(C(F)(F)F)ccc2C(F)(F)F)CCN(CC(=O)[O-])CCN(CC(=O)[O-])CC1.[Tb+3] [[TbL^2]^−]		71 s⁻¹	23	−159	−45			−59	−64			
O=C([O-])CN1CCN(CC(=O)[O-])CCN(CC(=O)Nc2ccc(C(F)(F)F)cc2C(F)(F)F)CCN(CC(=O)[O-])CC1.[Tm+3] [[TmL^1]]		16 s⁻¹	5.6	−79.6	−55							
O=C([O-])CN1CCN(CC(=O)[O-])CCN(CC(=O)Nc2ccc(C(F)(F)F)cc2C(F)(F)F)CCN(CC(=O)[O-])CC1.[Y+3] [[YL^1]]		0.93 s⁻¹ and 0.9 s⁻¹	~0.9	−61.3	−63.1						~0.9	2
O=C([O-])CN1CCN(CC(=O)[O-])CCN(CC(=O)Nc2ccc(C(F)(F)F)cc2C(F)(F)F)CCN(CC(=O)[O-])CC1.[Yb+3] [[YbL^1]]		4.6 s⁻¹	1.7	−65.4	−59.6							
